Laboratory results from PubChem BioAssay (NCI).
Values joined by “and” are separate entries in the source; they are usually repeats but may differ in a detail not shown here. Equal values may be shown once.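 Protocol summary: plate cells (96-well), add compound at 5 concentrations, incubate 48 h, interpolate endpoints linearly. At the GI50, growth is halved. The concentration for full growth arrest is given as TGI.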

Columns and labels:
Test in all cases: NCI-60 cell line screen, 48 h
EKVX NSCLC = system: EKVX NSCLC
HOP-62 NSCLC = system: HOP-62 NSCLC
HCT-116 colon = system: HCT-116 colon
IGROV1 ovarian = system: IGROV1 ovarian
COLO 205 colon = system: COLO 205 colon
DLD-1 colon = system: DLD-1 colon
RXF 393 renal = system: RXF 393 renal
LOX IMVI melanoma = system: LOX IMVI melanoma
BT-549 breast = system: BT-549 breast
NCI-H23 lung = system: NCI-H23 lung
KM12 colon = system: KM12 colon
MDA-MB-231 breast = system: MDA-MB-231 breast
M19-MEL melanoma = system: M19-MEL melanoma
UACC-62 melanoma = system: UACC-62 melanoma
UO-31 renal = system: UO-31 renal
DU-145 prostate = system: DU-145 prostate
M14 melanoma = system: M14 melanoma
PC-3 prostate = system: PC-3 prostate
TK-10 renal = system: TK-10 renal
A498 renal = system: A498 renal
K-562 leukemia = system: K-562 leukemia
NCI-H226 lung = system: NCI-H226 lung
NCI-H460 lung = system: NCI-H460 lung
ACHN renal = system: ACHN renal
UACC-257 melanoma = system: UACC-257 melanoma
SK-MEL-2 melanoma = system: SK-MEL-2 melanoma
MDA-N = system: MDA-N
CCRF-CEM leukemia = system: CCRF-CEM leukemia
MDA-MB-435 = system: MDA-MB-435
MALME-3M melanoma = system: MALME-3M melanoma
OVCAR-5 ovarian = system: OVCAR-5 ovarian
HS 578T breast = system: HS 578T breast
OVCAR-4 ovarian = system: OVCAR-4 ovarian
SK-MEL-5 melanoma = system: SK-MEL-5 melanoma
NCI-H522 lung = system: NCI-H522 lung
T-47D breast = system: T-47D breast
SK-OV-3 ovarian = system: SK-OV-3 ovarian
HT29 colon = system: HT29 colon
RPMI-8226 leukemia = system: RPMI-8226 leukemia
HOP-92 NSCLC = system: HOP-92 NSCLC
DMS 114 small cell lung = system: DMS 114 small cell lung
NCI/ADR-RES ovarian = system: NCI/ADR-RES ovarian
HCC-2998 colon = system: HCC-2998 colon
OVCAR-3 ovarian = system: OVCAR-3 ovarian
HOP-18 NSCLC = system: HOP-18 NSCLC
SN12C renal = system: SN12C renal
HCT-15 colon = system: HCT-15 colon
KM20L2 colon = system: KM20L2 colon
786-0 renal = system: 786-0 renal
CAKI-1 renal = system: CAKI-1 renal
OVCAR-8 ovarian = system: OVCAR-8 ovarian
SK-MEL-28 melanoma = system: SK-MEL-28 melanoma
DMS 273 small cell lung = system: DMS 273 small cell lung
SF-268 CNS = system: SF-268 CNS
MOLT-4 leukemia = system: MOLT-4 leukemia
U251 CNS = system: U251 CNS
A549 NSCLC = system: A549 NSCLC
SF-295 CNS = system: SF-295 CNS
MCF7 breast = system: MCF7 breast
SNB-19 CNS = system: SNB-19 CNS
SR leukemia = system: SR leukemia
SW-620 colon = system: SW-620 colon
SF-539 CNS = system: SF-539 CNS
HL-60(TB) leukemia = system: HL-60(TB) leukemia
SNB-75 CNS = system: SNB-75 CNS

CC[C@H]1CN2CCc3cc(OC)c(OC)cc3[C@@H]2C[C@@H]1C[C@H]1NCCc2cc(OC)c(OC)cc21
TGI (EKVX NSCLC): 151 nM and 144 nM | TGI (HOP-62 NSCLC): 216 nM and 221 nM | TGI (HCT-116 colon): 80.5 nM and 153 nM | TGI (IGROV1 ovarian): 93.5 nM and 277 nM | TGI (COLO 205 colon): 28.3 nM and 20.1 nM | TGI (DLD-1 colon): 591 nM and 408 nM | TGI (RXF 393 renal): 59.3 nM | TGI (LOX IMVI melanoma): 20.5 nM | TGI (BT-549 breast): 658 nM | TGI (NCI-H23 lung): 140 nM and 26 nM | TGI (KM12 colon): 138 nM | TGI (MDA-MB-231 breast): 45.8 nM | TGI (M19-MEL melanoma): 82.4 nM and 147 nM | TGI (UACC-62 melanoma): 206 nM and 95.7 nM | TGI (UO-31 renal): 242 nM and 978 nM | TGI (DU-145 prostate): 64.3 nM | TGI (M14 melanoma): 51.2 nM and 60.6 nM | TGI (PC-3 prostate): 103 nM | TGI (TK-10 renal): 78.4 nM and 309 nM | TGI (A498 renal): 176 nM | TGI (K-562 leukemia): 93.2 nM | TGI (NCI-H226 lung): 164 nM and 476 nM | TGI (NCI-H460 lung): 71.3 nM and 30 nM | TGI (ACHN renal): 97.4 nM and 428 nM | TGI (UACC-257 melanoma): 361 nM and 529 nM | TGI (SK-MEL-2 melanoma): 111 nM and 170 nM | TGI (MDA-N): 58.9 nM | GI50 (CCRF-CEM leukemia): 21.5 nM | TGI (CCRF-CEM leukemia): 65.6 nM | TGI (MDA-MB-435): 44.2 nM | TGI (MALME-3M melanoma): 255 nM | TGI (OVCAR-5 ovarian): 200 nM and 551 nM | TGI (HS 578T breast): 66.5 nM | TGI (OVCAR-4 ovarian): 54.1 nM and 11.7 nM | TGI (SK-MEL-5 melanoma): 70.1 nM and 85.5 nM | TGI (NCI-H522 lung): 39.2 nM and 35.6 nM | TGI (T-47D breast): 88.7 nM | TGI (SK-OV-3 ovarian): 223 nM and 991 nM | TGI (HT29 colon): 242 nM and 168 nM | TGI (RPMI-8226 leukemia): 151 nM and 17.5 nM | TGI (HOP-92 NSCLC): 196 nM and 77.9 nM | TGI (DMS 114 small cell lung): 136 nM and 46.6 nM | TGI (NCI/ADR-RES ovarian): 502 nM | TGI (HCC-2998 colon): 94.3 nM and 55.5 nM | TGI (OVCAR-3 ovarian): 187 nM and 180 nM | TGI (HOP-18 NSCLC): 403 nM | TGI (SN12C renal): 295 nM and 271 nM | TGI (HCT-15 colon): 760 nM and 1270 nM | TGI (KM20L2 colon): 488 nM and 312 nM | TGI (786-0 renal): 62.1 nM and 248 nM | TGI (CAKI-1 renal): 111 nM and 333 nM | TGI (OVCAR-8 ovarian): 532 nM and 1090 nM | TGI (SK-MEL-28 melanoma): 176 nM and 109 nM | TGI (DMS 273 small cell lung): 180 nM and 46.3 nM

COc1ccc(C(OCC2OC(n3cc(C)c(=O)[nH]c3=O)CC2n2cc(Cn3cc(F)c(=O)[nH]c3=O)nn2)(c2ccccc2)c2ccccc2)cc1 (stereo unspecified)
TGI (EKVX NSCLC): 23300 nM | TGI (HOP-62 NSCLC): 25700 nM | TGI (HCT-116 colon): 13200 nM | TGI (IGROV1 ovarian): 36400 nM | TGI (COLO 205 colon): 27000 nM | TGI (SF-268 CNS): 35000 nM | TGI (RXF 393 renal): 49600 nM | TGI (LOX IMVI melanoma): > 100000 nM | TGI (BT-549 breast): 28800 nM | TGI (NCI-H23 lung): 27900 nM | TGI (KM12 colon): 14300 nM | TGI (MDA-MB-231 breast): 7700 nM | TGI (UACC-62 melanoma): 29200 nM | TGI (UO-31 renal): 23600 nM | TGI (DU-145 prostate): 27100 nM | TGI (M14 melanoma): 27900 nM | TGI (PC-3 prostate): 31300 nM | TGI (MOLT-4 leukemia): 18600 nM | TGI (TK-10 renal): 33900 nM | TGI (A498 renal): 28600 nM | TGI (NCI-H226 lung): 36700 nM | TGI (U251 CNS): 21200 nM | TGI (ACHN renal): 27200 nM | TGI (UACC-257 melanoma): 28000 nM | TGI (SK-MEL-2 melanoma): 24800 nM | TGI (A549 NSCLC): > 100000 nM | TGI (MDA-N): 3530 nM | TGI (SF-295 CNS): 19400 nM | TGI (CCRF-CEM leukemia): 9850 nM | TGI (MDA-MB-435): 3940 nM | TGI (MALME-3M melanoma): 31800 nM | TGI (OVCAR-5 ovarian): 35500 nM | TGI (HS 578T breast): > 100000 nM | TGI (MCF7 breast): 34700 nM | TGI (OVCAR-4 ovarian): 47300 nM | TGI (SK-MEL-5 melanoma): 30100 nM | TGI (NCI-H522 lung): 21500 nM | TGI (T-47D breast): 24400 nM | TGI (SNB-19 CNS): 22800 nM | TGI (SK-OV-3 ovarian): 22900 nM | TGI (HT29 colon): > 100000 nM | TGI (SR leukemia): 8840 nM | TGI (RPMI-8226 leukemia): 8930 nM | TGI (SW-620 colon): 21400 nM | TGI (HOP-92 NSCLC): 19500 nM | TGI (SF-539 CNS): 23900 nM | TGI (NCI/ADR-RES ovarian): > 100000 nM | TGI (HCC-2998 colon): 15100 nM | TGI (OVCAR-3 ovarian): 19600 nM | TGI (SN12C renal): 22800 nM | TGI (HCT-15 colon): 23300 nM | TGI (HL-60(TB) leukemia): 5830 nM | TGI (786-0 renal): 21700 nM | TGI (CAKI-1 renal): 25000 nM | TGI (OVCAR-8 ovarian): > 100000 nM | TGI (SK-MEL-28 melanoma): 24900 nM | TGI (SNB-75 CNS): 42500 nM
